Test results: the NIST ThermoML archive (doi:10.1016/j.jct.2004.11.009)

Experiments:
[1] = 101.33 kPa, Liquid
[2] = xn = mol fraction of the nth substance listed; conditions: 101.33 kPa, Liquid, x2 = 0

Cc1cccnc1 [3-methylpyridine]
[1]
Conditions	mass density [kg/m3]	viscosity [mPa·s]
293.15 K	956	0.9459
303.15 K	946.6	0.8318
313.15 K	937.7	0.7352
323.15 K	928.3	0.6565
333.15 K	919.3	0.5936
343.15 K	910.3	0.539

O [water] + Cc1cccnc1
[2]
Conditions	mass density [kg/m3]	viscosity [mPa·s]
293.15 K	–	1.002
303.15 K	–	0.7977
313.15 K	–	0.6532
323.15 K	988	0.547
333.15 K	983.2	0.4665
343.15 K	977.8	0.404
